Measurements taken from patent US6720353B2, “Plant proanthocyanidin extract effective at inhibiting adherence of bacteria with p-type fimbriae to surfaces” (priority 1997, dated 2004).

How the values were obtained:
P-type E. coli [1] = experiment: Hemagglutination assay: inhibition of P-type E. coli-induced agglutination of A+ human red blood cells (HRBC); type: cell-based; conditions: for Inhibition of agglutination, HRBC: P-type E. coli, A+ human red blood cells, neutral pH
Description: (§1) Sixty E. coli strains were isolated from the urine of human and animal (dog and cat) patients suffering from urinary tract infections. After determining the fimbrial type of each strain, 5 strains specific for P-type fimbriae, and 5 strains specific for type 1 fimbriae were selected for use in bioactivity testing. Bacterial strains were subcultured in tryptose broth at 37° C. for 16 h. P-type strains were transferred to colonization factor agar (CFA) plates and grown overnight at 37° C. to enhance production of P-type fimbriae. Strains were harvested by centrifugation, washed once and suspended in phosphate-buffered saline solution (PBS) at pH 7.0 at a concentration of 5×10^8 bacteria/mL. […] Therefore, mixtures of P-type strains were used to test for P-type bioactivity, and mixtures of type 1 strains were used to test for type 1 bioactivity. Strains were kept frozen at −70° C. in tryptose broth (30% glycerol) for long-term storage.

type 1-fimbriated E coli = experiment: Yeast (Saccharomyces cerevisiae) agglutination assay; type: cell-based; conditions: for Inhibition of agglutination, Yeast Cells: type 1 E. coli, S. cerevisiae
Description: as §1
The fractions were also tested in the bioassay of Eschdat et al., 1978, Biochem. Biophys. Res. Commmun. 85:1551-1559, using yeast cells. Yeast cultures of Saccharomyces cerevisiae were grown in Sabouraud dextrose broth and incubated for 24 hr at 38° C. Yeast cells were transferred to Sabouraud dextrose agar plates and grown under the same conditions. Cells were harvested, washed and suspended in PBS at a concentration of 4×10^8 cells/mL. Ten μl of type 1-fimbriated E coli were mixed with neutralized test fractions (30 μl) in a 24-well polystyrene plate and incubated for 10 min on a rotary shaker. Yeast cell suspension (10 μl) was added to each well and incubated for 5 min. […] The control to show agglutination consisted of bacteria and yeast. Tie results are shown in Table 4 under the column “Yeast Cells” using the same scoring system as described above.

P-type E. coli [2] = experiment: Latex bead agglutination test (beads coated with synthetic P-type receptor analog Galα1→4Galβ); type: cell-based; conditions: for Inhibition of agglutination, P-Receptor: P-type E. coli, latex beads coated with P-type receptor analog
Description: as §1
The fractions were also tested in the P-type receptor bioassay of de Man et al., 1987, J. Clin. Microbiol. 25(2):401-406. Dried Fractions 1-8 were dissolved in PBS, neutralized, and mixed with P-type bacterial suspensions (30 μl fraction to 10 μl of bacterial suspension) on a polystyrene 24-well plate and incubated for 10 min on a rotary shaker. Latex beads coated with a synthetic P-type receptor analog (Galα1→4Galβ) (BACH test, Kabi Vitrum, Stockholm, Sweden) suspended in water at a concentration of 5×10^9 beads/mL were added (10 μl) to each well and incubation continued for 20 min on the rotary shaker. […] (4) uncoated beads and test fractions, and (5) bacteria, coated beads and epicatechin trimer. The control to show agglutination consisted of bacteria and coated beads.

type 1 E. coli [3] = experiment: Hemagglutination assay with guinea pig red blood cells (GPRBC); type: cell-based
Description: as §1
The inhibition of adherence of type 1 E. coli by the various fractions was tested according to hemagglutination assay for P-type bacteria, except guinea pig red blood cells (GPRBC) were used in place of HRBC. The results are shown in Table 4 under the column GPRBC using the same scoring system as described above.

type 1 E. coli [4] = conditions: cited from earlier work

Row | Molecule | Inhibition of agglutination, HRBC (P-type E. coli [1]) | Agglutination in control well (type 1-fimbriated E coli; bacteria, yeast and 1% D-mannose) | Inhibition of agglutination, Yeast Cells (type 1-fimbriated E coli) | Inhibition of agglutination, P-Receptor (P-type E. coli [2]) | Inhibition of agglutination, GPRBC (type 1 E. coli [3]) | Inhibition of type 1 E. coli to uroepithelial cells (type 1 E. coli [4]) | Agglutination in control well (P-type E. coli [1]; bacteria, HRBC and standard) | Agglutination in control well (P-type E. coli [2]; bacteria, coated beads and standard)
1 | O=C[C@@H](O)[C@@H](O)[C@H](O)[C@H](O)CO [1% D-Mannose, D-Mannose] | − | no agglutination or complete inhibition of agglutination | + | − | + |  |  | 
2 | O=C(CO)[C@@H](O)[C@H](O)[C@H](O)CO [fructose] |  |  |  |  |  | responsible for the inhibition |  | 
3 | Epicatechin Trimer | + |  | − | + | − |  | no agglutination or complete inhibition of agglutination | no agglutination or complete inhibition of agglutination
